We go through one compound from publication PMC3602354 (Chemical research in toxicology, 2013).

Data set [1] is described as follows: in vitro. The format is in vitro ADME, mouse. To be noted: Cyp2a5-null, mouse, pH 7.4.
For data set [2], the system named is Cyp2a5-null mouse nasal mucosa microsomes. Put plainly: in vitro. The format is in vitro ADME.
Data set [3] in a line: in vitro. The format is in vitro ADME, human. To be noted: both, human.
Data set [4] deals with human fetal nasal mucosa microsomes. As to the kind of experiment: in vitro. The format is in vitro ADME. Particulars: GS-DCBN formation; human fetal nasal mucosa microsomes; mean ± SE, n=3.
Data set [5] has as its system nasal mucosa. Put plainly: Histopathological analysis of nasal mucosa in DCBN-treated WT mice. The format is in vivo, mouse.
Data set [6] concerns nasal mucosa. As to the kind of experiment: Histopathological analysis of nasal mucosa in DCBN-treated Cyp2a5-null mice. The format is in vivo, mouse. Particulars: DCBN 10 mg/kg single i.p., 24 h after treatment.
For data set [7], the system named is WT mouse nasal mucosa microsomes. As to the kind of experiment: in vitro. The format is in vitro ADME. Particulars: GS-DCBN formation; WT mouse nasal mucosa microsomes; mean ± SE, n=3.
Data set [8] can be described thus: in vitro. The format is in vitro ADME, mouse. To be noted: mouse, pH 7.4.
Setting [9] is: Cyp2a5-null vs WT nasal mucosa microsomes.

Where “and” joins values, the source holds several entries; their conditions need not be identical. Identical values can stand only once.

What is called Km is the substrate concentration at which the rate is half of its maximum. `N#Cc1c(Cl)cccc1Cl` [DCBN, 2,6-dichlorobenzonitrile]: the Km turned out to be 4.2 ± 0.6 µM in “in vitro [1]” and 0.43 ± 0.04 µM in “in vitro [8]”. Further, in data set [2] (setting [9]), the “decrease in apparent Vmax compared to WT mice” value is listed as ~ 4 fold. Also, in data set [2] (setting [9]), the “increase in apparent Km compared to WT mice” value was ~ 10 fold. For the same compound, the “reduction of efficiency for GS-DCBN formation compared to WT mice” value in data set [2] (setting [9]) is listed as ~ 40 fold. In addition, the Vmax was 253 ± 12 pmol/min/mg protein in data set [2] (GS-DCBN formation, Cyp2a5-null mouse nasal mucosa microsomes, mean ± SE, n=3); 0.14 pmol/min/mg protein and 0.14 ± 0.01 pmol/min/mg protein in data set [4]; 1050 ± 30 pmol/min/mg protein in data set [7]. Moreover, the Km at 60 min in “in vitro [3]” was found to be 0.45 ± 0.1 µM. Moreover, the “histopathology of nasal mucosa” value was “moderate injury to the nasal mucosa” with nasal mucosa [5] (DCBN 10 mg/kg single i.p., 24 h after treatment); “essentially normal morphology” in the data set on nasal mucosa [5] (DCBN 4 × 1 mg/kg s.c., 1.5-h intervals, 24 h after last treatment); “essentially normal olfactory epithelium and BG” with nasal mucosa [6].
